Laboratory results published in patent US6365582B1, “S-substitute 11β-benzaldoxime-estra-4, 9-diene-carbonic acid thiolesters, method for the production thereof and pharmaceutical preparations containing these compounds” (Jenapharm GmbH & Co. KG, priority 1998, dated 2002).

Columns and labels:
progesterone receptor = target: T1, progesterone receptor (Oryctolagus cuniculus, UniProt P06186); assay: Receptor binding affinity, progesterone receptor (competitive binding, uterus cytosol); settings: Progesterone = 100%; uterus cytosol of estradiol-primed rabbit; tracer 3H-ORG 2058
T1 construct: receptors in the cytosol of animal target organs; from tissue; host or cells: uterus cytosol of the estradiol-primed rabbit
T1 sequence (P06186 1-930): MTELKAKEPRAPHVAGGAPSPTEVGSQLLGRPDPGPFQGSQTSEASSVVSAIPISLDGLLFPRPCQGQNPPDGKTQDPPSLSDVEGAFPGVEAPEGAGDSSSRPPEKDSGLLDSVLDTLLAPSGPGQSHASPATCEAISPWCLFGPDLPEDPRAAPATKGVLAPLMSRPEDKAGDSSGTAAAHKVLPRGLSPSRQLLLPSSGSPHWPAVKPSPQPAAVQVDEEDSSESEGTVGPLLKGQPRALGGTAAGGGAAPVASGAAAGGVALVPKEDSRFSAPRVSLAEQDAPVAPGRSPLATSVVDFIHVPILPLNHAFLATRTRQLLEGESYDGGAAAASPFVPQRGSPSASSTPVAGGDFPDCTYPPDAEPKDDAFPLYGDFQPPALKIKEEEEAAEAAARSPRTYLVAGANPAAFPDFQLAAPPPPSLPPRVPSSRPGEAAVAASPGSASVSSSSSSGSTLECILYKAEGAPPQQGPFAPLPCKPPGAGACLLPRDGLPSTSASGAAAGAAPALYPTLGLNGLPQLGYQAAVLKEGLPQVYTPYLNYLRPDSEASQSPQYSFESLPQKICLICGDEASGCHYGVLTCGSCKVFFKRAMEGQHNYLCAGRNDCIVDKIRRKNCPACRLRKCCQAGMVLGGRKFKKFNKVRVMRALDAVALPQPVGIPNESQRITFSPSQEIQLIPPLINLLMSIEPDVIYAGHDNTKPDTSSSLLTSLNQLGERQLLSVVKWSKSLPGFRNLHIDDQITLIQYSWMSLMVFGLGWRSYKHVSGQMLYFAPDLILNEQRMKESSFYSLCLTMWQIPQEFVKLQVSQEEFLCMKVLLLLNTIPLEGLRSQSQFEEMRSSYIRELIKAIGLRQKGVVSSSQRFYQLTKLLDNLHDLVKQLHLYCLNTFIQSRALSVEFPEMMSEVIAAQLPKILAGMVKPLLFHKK
Protocol: (§1) Measurement of the receptor binding affinity
(§2) The receptor binding affinity was determined by competitive binding of a specifically binding ^3H-labeled hormone (tracer) and the compound to be tested to receptors in the cytosol of animal target organs. Receptor saturation and reaction equilibrium were aimed at here. The following incubation conditions were chosen:
Progesterone receptor Uterus cytosol of the estradiol-primed rabbit, stored at −30° C.
Buffer for homogenization and incubation: TED buffer 20 mM tris/HCl, pH [sic]=7.4; 1 mM ethylenediamine tetracetate, 2 mM dithiothreitol) containing 250 mM sucrose.
Reference substance: progesterone.
(§3) After an incubation of receptor fraction, tracer and competitor for 18 h at 0-4° C., the bound and free steroid were separated by mixing in active carbon/dextran (1%/0.1%), centrifuging off and measuring the receptor-bound ^3H activity in the supernatant.

[1] = test system: early pregnancy in the rat; assay: Inhibition of early pregnancy in the rat (early abortive action); format: in vivo; settings: s.c., day 5-7 of pregnancy
Protocol: Inhibition of early pregnancy in the rat Female rats weighing 180-200 g were mated in the proestrus stage. On detection of sperm in the vaginal region on the next day, this is set as day 1 (d=1) of the pregnancy. The rats are treated with test substance or vehicle using 0.2 ml of benzoyl benzoate/castor oil (1+4 v/v) subcutaneously from day 5 to day 7 (d5-d7); autopsy is carried oust painlessly on day d9. The uterus horns was [sic] dissected and examined for intact or damaged nidation sites.

glucocorticoid receptor = target: T2, glucocorticoid receptor (Rattus norvegicus, UniProt P06536); assay: Receptor binding affinity, glucocorticoid receptor (competitive binding, thymus cytosol); settings: Dexamethasone = 100%; thymus cytosol of adrenalectomized rat; tracer 3H-dexamethasone
T2 construct: receptors in the cytosol of animal target organs; from tissue; host or cells: thymus cytosol of the adrenalectomized rat
T2 sequence (P06536 1-795): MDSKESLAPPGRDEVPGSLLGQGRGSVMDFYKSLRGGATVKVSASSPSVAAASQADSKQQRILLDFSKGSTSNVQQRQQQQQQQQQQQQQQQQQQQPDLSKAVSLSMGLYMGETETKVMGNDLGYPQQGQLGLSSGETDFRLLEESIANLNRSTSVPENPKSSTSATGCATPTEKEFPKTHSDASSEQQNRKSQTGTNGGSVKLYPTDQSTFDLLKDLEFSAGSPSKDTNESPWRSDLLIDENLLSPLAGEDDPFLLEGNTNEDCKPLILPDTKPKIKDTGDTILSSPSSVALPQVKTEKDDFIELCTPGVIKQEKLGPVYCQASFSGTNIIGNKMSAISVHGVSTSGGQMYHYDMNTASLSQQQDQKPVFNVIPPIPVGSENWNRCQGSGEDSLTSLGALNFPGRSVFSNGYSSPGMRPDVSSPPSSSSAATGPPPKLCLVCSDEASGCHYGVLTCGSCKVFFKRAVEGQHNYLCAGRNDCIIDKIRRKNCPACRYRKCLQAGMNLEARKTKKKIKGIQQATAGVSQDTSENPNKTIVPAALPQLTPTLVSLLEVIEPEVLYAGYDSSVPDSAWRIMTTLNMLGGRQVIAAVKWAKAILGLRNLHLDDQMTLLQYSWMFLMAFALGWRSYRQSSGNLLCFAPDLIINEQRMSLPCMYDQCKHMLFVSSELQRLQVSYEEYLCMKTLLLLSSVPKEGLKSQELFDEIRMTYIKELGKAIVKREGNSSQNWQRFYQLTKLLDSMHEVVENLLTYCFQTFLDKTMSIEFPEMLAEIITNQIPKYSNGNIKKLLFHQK
Protocol: as §1, §2
Glucocorticoid receptor: Thymus cytosol of the adrenalectomized rat. Thymi stored at −30° C.
Tracer: ^3H-dexamethasone, 20 nM.
Reference substance: dexamethasone.
as §3

guinea pig in cycle = assay: Antiluteolysis test/ovulation inhibition test in the guinea pig in cycle; format: in vivo; settings: guinea pig
Protocol: Antiluteolysis test/ovulation inhibition test in the guinea pig in cycle: This test is based on the fact that progesterone at the end of the cycle stimulates uterine prostaglandin secretion. In the guinea pig, the inhibition of this function leads to a persistence of the corpora lutea (antiluteolysis). […] This test thus allows the therapy-relevant typing of progesterone antagonists as ? pure” or ? agonistic” substances. Guinea pigs are treated with the test substance on day 10 to day 17 of the cycle. The progesterone concentrations in the serum are determined on day 10 before substance treatment and on the following days until autopsy ([…]., Beier, […]., Crundel, M. et al. in Current Concepts in Fertility Regulation and Reproduction, (eds). Puri, C. P. and Van Look, P. F. H. (1994) 303-328).

pregnancy of guinea pigs = assay: Inhibition of late pregnancy in pregnant guinea pigs (abortive action); format: in vivo; settings: guinea pig; for Complete inhibition of pregnancy % / Complete inhibition of pregnancy N#/N (non-gravid/mated females): s.c., day 43-44 of pregnancy
Protocol: Inhibition of late pregnancy in pregnant guinea pigs
Pregnant guinea pigs are treated with test substances from day 43-44. Experimental animals were […] with the test substance in oily solution (0.2-2.0 ml of benzoyl benzoate/castor oil 1+4 v/v) 1× daily on day 43 and 44. Control animals were treated with vehicle. The pregnancy of the animals was monitored until day 50, in particular, the expulsion of fetuses and placentas was observed and recorded.

Compound	Relative molar binding affinity RBA (%) to the progesterone receptor (progesterone receptor) [%]	Complete inhibition of pregnancy % ([1]; 1 mg/(animal × day)) [%]	Complete inhibition of pregnancy N#/N (non-gravid/mated females) ([1]; 1 mg/(animal × day))	Complete inhibition of pregnancy % ([1]; 3 mg/(animal × day)) [%]	Complete inhibition of pregnancy N#/N (non-gravid/mated females) ([1]; 3 mg/(animal × day))	Relative molar binding affinity RBA (%) to the glucocorticoid receptor (glucocorticoid receptor) [%]	further results
COC[C@]1(OC)CC[C@H]2[C@@H]3CCC4=CC(=O)CCC4=C3[C@@H](c3ccc(/C=N/O)cc3)C[C@@]21C [J 867, 11β-[4-(hydroximinomethyl)phenyl]-17β-methoxy-17α-methoxymethyl-estra-4,9-dien-3-one, reference compound]	302	100	5/5	100	5/5	77	Complete inhibition of pregnancy % ([1]; 0.3 mg/(animal × day)): 0%; Complete inhibition of pregnancy N#/N (non-gravid/mated females) ([1]; 0.3 mg/(animal × day)): 0/5
CC(=O)[C@H]1CC[C@H]2[C@@H]3CCC4=CC(=O)CC[C@]4(C)[C@H]3CC[C@]12C [progesterone]	–	–	–	–	–	–	Prostaglandin / PGFM levels in the blood (in words) (guinea pig in cycle): raised prostaglandin F metabolite levels
COCC1(OC)CCC2C3CCC4=CC(=O)CCC4=C3C(c3ccc(C=NOC(=O)SC)cc3)CC21C (stereo not drawn) [Example 1, 4-[17β-Methoxy-17α-(methoxymethyl)-3-oxoestra-4,9-dien-11β-yl]benzaldehyde 1-(E)-[O-(methylthio)carbonyl]oxime]	159	–	–	–	–	49	–
CCSC(=O)ON=Cc1ccc(C2CC3(C)C(CCC3(O)CCl)C3CCC4=CC(=O)CCC4=C23)cc1 (stereo not drawn) [Example 6, 4-[17β-Hydroxy-17α-(chloromethyl)-3-oxoestra-4,9-dien-11β-yl]benzaldehyde 1-(E)-[O-(ethylthio)carbonyl]oxime]	64	–	–	–	–	22	–
CCSC(=O)O/N=C/c1ccc([C@H]2C[C@@]3(C)[C@@H](CC[C@]3(COC)OC)[C@@H]3CCC4=CC(=O)CCC4=C32)cc1 [Example 3, 4-[17β-Methoxy-17α-(methoxymethyl)-3-oxoestra-4,9-dien-11β-yl]benzaldehyde 1-(E)-[O-(ethylthio)carbonyl]oxime]	164	0	0/5	0	0/5	42	Complete inhibition of pregnancy % ([1]; 10 mg/(animal × day)): 20%; Complete inhibition of pregnancy N#/N (non-gravid/mated females) ([1]; 10 mg/(animal × day)): 1/5; Complete inhibition of pregnancy % (pregnancy of guinea pigs; 10 mg/animal/day): 0%; Complete inhibition of pregnancy N#/N (non-gravid/mated females) (pregnancy of guinea pigs; 10 mg/animal/day): 0/7; Complete inhibition of pregnancy % (pregnancy of guinea pigs; 30 mg/animal/day): 0%; Complete inhibition of pregnancy N#/N (non-gravid/mated females) (pregnancy of guinea pigs; 30 mg/animal/day): 0/7; Complete inhibition of pregnancy % (pregnancy of guinea pigs; 100 mg/animal/day): 0%; Complete inhibition of pregnancy N#/N (non-gravid/mated females) (pregnancy of guinea pigs; 100 mg/animal/day): 0/7; Interference with the pregnancy of guinea pigs (in words) (pregnancy of guinea pigs; very high doses): incapable even at very high doses of interfering with the pregnancy of guinea pigs
CCSC(=O)ON=Cc1ccc(C2CC3(C)C(CCC3(O)COC)C3CCC4=CC(=O)CCC4=C23)cc1 (stereo not drawn) [Example 4, 4-[17β-Hydroxy-17α-(methoxymethyl)-3-oxoestra-4,9-dien-11β-yl]benzaldehyde 1-(E)-[O-(ethylthio)carbonyl]oxime]	44	–	–	–	–	53	–
COC[C@@]1(O)CC[C@H]2[C@@H]3CCC4=CC(=O)CCC4=C3[C@@H](c3ccc(/C=N/OC(=O)SC)cc3)C[C@@]21C [Example 2, 4-[17β-Hydroxy-17α-(methoxymethyl)-3-oxoestra-4,9-dien-11β-yl]benzaldehyde 1-(E)-[O-(methylthio)carbonyl]oxime]	185	–	–	0	0/4	52	–
CCSC(=O)ON=Cc1ccc(C2CC3(C)C(CCC3(O)CN=[N+]=[N-])C3CCC4=CC(=O)CCC4=C23)cc1 (stereo not drawn) [Example 5, 4-[17β-Hydroxy-17α-(azidomethyl)-3-oxoestra-4,9-dien-11β-yl]benzaldehyde-1-(E)-[O-(ethylthio)carbonyl]oxime]	77	–	–	–	–	20	–
CCSC(=O)OC[C@]1(O)CC[C@H]2[C@@H]3CCC4=CC(=O)CCC4=C3[C@@H](c3ccc(/C=N/OC(=O)SCC)cc3)C[C@@]21C [Example 8, 4-{17β-Hydroxy-17α-[(ethylthiocarbonyloxy)methyl]3-oxoestra-4,9-dien-11β-yl]benzaldehyde 1-(E)-[O-(ethylthio)carbonyl]oxime]	74	–	–	–	–	32	–
CCSC(=O)O/N=C/c1ccc([C@H]2C[C@@]3(C)[C@@H](CC[C@@]3(O)CC#N)[C@@H]3CCC4=CC(=O)CCC4=C32)cc1 [Example 7]	42	0	0/5	0	0/5	2	–
